# Measured values published in patent US4244946A, “Water-soluble peptides affecting gonadal function” (The Salk Institute for Biological Studies, priority 1979, dated 1981).
# Experiments:
# [1] = system: dispersed rat pituitary cells; assay: LH secretion by four-day-old primary culture of dispersed rat pituitary cells over 4 hours, radioimmunoassay for rat LH; format: cell-based; details: for NANOGRAMS OF LH SECRETED: Table I, 4-hour period; for relative potency, compared to LRF: in vitro LH release, confidence limits in parentheses
# Experimental: The peptides prepared in the foregoing Example I are assayed in vitro using a four-day-old primary culture of dispersed rat pituitary cells and compared with LRF. The levels of LH secreted over a 4-hour period in response to the application of peptides are assayed by specific radioimmunoassay for rat LH. The results of testing are expressed in Table I herebelow: […]
# [2] = system: dispersed rat pituitary cells; assay: as above; format: cell-based; details: Table II, 4-hour period
# [3] = in vivo test of agonistic potency compared with LRF
# Experimental: The effectiveness of the peptide compositions prepared in Examples I and II is also tested in vivo, and the relative agonistic potencies of peptides determined in the in vitro assays reported above correlate well with the potencies obtained from in vivo tests.
Compound,NANOGRAMS OF LH SECRETED ([1]; 0.1 nM peptide),NANOGRAMS OF LH SECRETED ([1]; 0.3 nM peptide),NANOGRAMS OF LH SECRETED ([1]; 1.0 nM peptide),NANOGRAMS OF LH SECRETED ([1]; 3.0 nM peptide),NANOGRAMS OF LH SECRETED ([2]; 0.3 nM peptide),NANOGRAMS OF LH SECRETED ([2]; 1.0 nM peptide),NANOGRAMS OF LH SECRETED ([2]; 3.0 nM peptide),"relative potency, compared to LRF [1]","relative potency, compared to LRF ([1]; Pro^9 -NEt]-LRF)",potency compared with LRF when tested in vivo [3],NANOGRAMS OF LH SECRETED ([2]; 0.003 nM peptide),NANOGRAMS OF LH SECRETED ([2]; 0.01 nM peptide),NANOGRAMS OF LH SECRETED ([2]; 0.03 nM peptide),NANOGRAMS OF LH SECRETED ([1]; 0.003 nM peptide),NANOGRAMS OF LH SECRETED ([1]; 0.01 nM peptide),NANOGRAMS OF LH SECRETED ([1]; 0.03 nM peptide),"relative potency, compared to LRF ([1]; listed as [D-His^6 (im-Bzl)]-LRF)"
"CC(C)C[C@H](NC(=O)CNC(=O)[C@H](Cc1ccc(O)cc1)NC(=O)[C@H](CO)NC(=O)[C@H](Cc1c[nH]c2ccccc12)NC(=O)[C@H](Cc1c[nH]cn1)NC(=O)[C@@H]1CCC(=O)N1)C(=O)N[C@@H](CCCNC(=N)N)C(=O)N1CCC[C@H]1C(=O)NCC(N)=O [LRF, p-Glu-His-Trp-Ser-Tyr-Gly-Leu-Arg-Pro-Gly-NH2, reference compound]",1255 nanograms,1767 nanograms,2167 nanograms,2867 nanograms,631 nanograms,1001 nanograms,1496 nanograms,,,,,,,,,,
"[D-His^6 (im-Bzl), Pro^9 -NEt]-LRF [Example II]",,,,,,,,217(57-952) times that of LRF,more than 200 times that of LRF,very significantly more potent than LRF,895 nanograms,1256 nanograms,2008 nanograms,,,,
p-Glu-His-Trp-Ser-Tyr-D-His(im-Bzl)-Leu-Arg-Pro-Gly-NH2 [Example I],2225 nanograms,2667 nanograms,,,,,,12(5.8-24) times that of LRF,,very significantly more potent than LRF,,,,885 nanograms,1345 nanograms,2150 nanograms,about 12 times that of LRF
